Reference: patent publication US11291704B2, “Composition for preventing or treating obesity containing ethanolic extract of Ramulus mori” (Korea University Research and Business Foundation, priority 2016, dated 2022)

System: 3T3-L1 cells
Experiment: Lipid accumulation evaluation, Oil red O staining of MDI-differentiated adipocytes
Assay type: cell-based
Conditions: 5 mM; DMSO-only sample = 100%; absorbance at 500 nm
Procedure: For induction of 3T3-L1 cells into adipocytes, the cells were treated with MDI (5 μg/ml insulin, 0.5 mM IBMX, and 1.0 μM dexamethasone) in DMEM containing 10% FBS and 1% penicillin-streptomycin, followed by induction of differentiation for 2 days. The differentiated 3T3-L1 cells were washed with physiological buffered saline (PBS), and then fixed with 10% formalin for 1 hour. The fixed cells were washed twice with ddH2O, treated with 60% isopropanol for 5 minutes, and then stained with Oil red O solution (dissolved in 60% isopropanol) for 10 minutes. After staining, the cells were washed four times with ddH2O, and de-stained with 100% isopropanol for 10 minutes, and then the cells were observed using a microscope and measured for absorbance at 500 nm.
The result of the sample treated with only DMSO used as a solvent was converted to 100%, and quantitatively measured for lipids.

Q: Which lipid accumulation does the source give for `CC(=O)N[C@@H](CS)C(=O)O` [n-acetyl cysteine] here?
A: 20.6±3.7%
